From patent US20090253616A1, “COMBINATION THERAPY FOR THE TREATMENT OF CANCER” (ASTRAZENECA AB, priority 2006, published 2009)

System: MCF7 ADR cells
Assay: Activity in MDR cells: inhibition of phosphohistone H3 (phH3) in MCF7 ADR cells, with and without UIC2 mAb
Type: cell-based
Method: MCF7 ADR cells are known to highly express Pgp and other efflux transporters.
On day 1; 8×10^4 MCF7 ADR cells/ml were plated into a 96 well plate in 100 μl of media (DMEM, 10% FCS, 1% glutamine) and left to adhere at 37° C. overnight.
After 24 hours the cells were examined using the light microscope, and any cellular change in morphology was noted. The cells were then fixed with 100 μl of 3.7% formaldehyde for 30 minutes at room temperature and then washed in PBS using an automated plate washer. 1001 PBS 0.5% triton X-100 was then added for 5 minutes on a shaker. The plate was washed in 100 μl PBS and 50 μl of primary antibody (1:1000 rabbit anti-phosphohistone H3 in PBS 1% BSA 0.5% tween) was added. The plate was left for at least 1 hour at room temperature, on a shaker, after which the antibody was removed and the cells washed twice with PBS. In darkness, 50 μl of secondary antibody (1:10,000 Hoechst and 1:1000 Alexa Fluor 488 anti rabbit in PBS 1% BSA 0.5% tween) was added and the plate left for at least 1 hour at room temperature. The secondary antibody was removed and the plate washed twice with PBS. 200 μl PBS was then added and left for 10 minutes with shaking. The PBS was removed. 100 μl PBS was added and the plate sealed prior to analysis. […]
The plate was analysed on a Cellomics Arrayscan using the Target Activation algorithm. […]

Structure (SMILES): CCN(CCCOc1ccc2c(Nc3cc(CC(=O)Nc4cccc(F)c4)[nH]n3)ncnc2c1)CCOP(=O)(O)O [aurora kinase inhibitor, 2-[[3-({4-[(5-{2-[(3-fluorophenyl)amino]-2-oxoethyl}-1H-pyrazol-3-yl)amino]-quinazolin-7-yl}oxy)propyl](ethyl)amino]ethyl dihydrogen phosphate]
- activity of aurora kinase inhibitor alone (inhibition of phH3) (100 nM): inactive
- Pgp mediated efflux of the compound (substrate of Pgp) (efflux inhibited by UIC2 mAb 10 μg/ml): Pgp mediated efflux
